From patent USRE48461E1, “Modulation of androgen receptor expression” (Ionis Pharmaceuticals, Inc., priority 2012, dated 2021) come the findings set out here.

Data set [1] concerns AR mRNA. The data set is described as follows: AR mRNA in LnCaP cells by free uptake (hAR_LTS00943). In kind it is cell-based, human. The following applies: 24 hrs. The method, then:
Cells were plated at a concentration of 4,000 cells/well in 96-well plates. ISIS oligonucleotides, specified in Table 68, were added individually at 0.02 μM, 0.10 μM, 0.50 μM, 2.50 μM, or 10.00 μM. After an incubation period of 24 hrs, mRNA levels were measured using primer probe set hAR_LTS00943.

The test system of another data set is C4-2B cells. The data set is described as follows: C4-2B cell proliferation, ASO in combination with MDV3100 (Example 19). The following applies: for inhibition at 1 µM: Homo sapiens, PBS (no ASO) + MDV3100 1 μM, read-out: Percent inhibition of C4-2B cell proliferation. In kind it is cell-based, human. The method, then:
C4-2B cells were plated at 1,500 cells per well. […] ISIS 347526 was included as a negative control. […] After a treatment period of 6 days, the proliferative capacity of the cancer cells was measured with CellTiter 96® AQueous One Solution Cell Proliferation kit (Promega), following the manufacturer's instructions. Results are presented in Table 46 as percent inhibition of proliferation, relative to non-treated cells. Treatment of the cells with ISIS 549372 or ISIS 549458 reduced proliferation of the cells more extensively than treatment with ISIS 554221.

In another data set the test system is AR V7 variant mRNA. The data set is described as follows: AR V7 variant RNA in VCaP cells. Type of data set: cell-based, human. The following applies: 48 hrs; for Percent inhibition of AR V7 variant: RNAiMax. The method, then:
Cells were plated at 10,000 cells per well. […] ISIS 549148 was included as a negative control. After an incubation period of 48 hrs, RNA levels of full length AR, the V7 variant, PSA and TMPRSS2 were measured.
A separate set of cells was treated with MDV-3100 at 0.04 μM, 0.2 μM, 1.0 μM, or 5.0 μM. After an incubation period of 48 hrs, RNA levels of full length AR, the V7 variant, PSA and TMPRSS2 were measured. The data is presented in Tables 108 expressed as percent expression of gene levels compared to the untreated control.
Cells were plated at 15,000 cells per well and cultured in CSS media for 16 hours. […] ISIS 549148 was included as a negative control. After 4 hrs, 1 nM DHT was added. […] After an incubation period of 48 hrs, RNA levels of AR, PSA and TMPRSS2 were measured. […]

For a further data set, the system named is full-length AR. The data set is described as follows: Western blot of full-length AR in C4-2B cells (time course). In kind it is cell-based, human. The settings on record: 24 hours and 48 hours, normalized to GAPDH. The method, then:
Protein levels in the cells were also analyzed. The cells were harvested in RIPA buffer containing protease inhibitors. The presence of bands for full-length AR was detected by western blot using AR antibody (N-20, SC-816, Santa Cruz Biotechnology).
In general terms: In western blotting, separated proteins are transferred to a membrane and probed.

For data set [2] the following is noted: cynomolgus monkey, in vivo, sc, 40 mg/kg.
For data set [3] the following is noted: cynomolgus monkey, in vivo, sc, 40 mg/kg. This is another data set of the same source.
Protocol: (§1) Prior to the study, the monkeys were kept in quarantine for a 30-day period, during which the animals were observed daily for general health. The monkeys were 2-4 years old and weighed between 2 and 4 kg. Thirteen groups of four randomly assigned male cynomolgus monkeys each were injected subcutaneously with ISIS oligonucleotide or PBS. PBS solution or ISIS oligonucleotides, at a dose of 40 mg/kg, were administered with a loading regimen consisting of four doses on the first week of the study (days 1, 3, 5, and 7), followed by a maintenance regimen consisting of once weekly administration starting on Day 14 (weeks 2 to 6). Subcutaneous injections were performed in clock-wise rotations at 4 sites on the back; one site per dose. The injection sites were delineated by tattoo, while sedated using ketamine, and were separated by a minimum of 3 cm.
To evaluate the effect of ISIS oligonucleotides on the overall health of the animals, body and organ weights were measured.
The conditions of data set [4]: cynomolgus monkey, in vivo.
Protocol: as §1
The concentrations of the full-length oligonucleotide in the kidney and the liver of select treatment groups were measured. The method used is a modification of previously published methods (Leeds et al., 1996; Geary et al., 1999) which consist of a phenol-chloroform (liquid-liquid) extraction followed by a solid phase extraction.
Another data set relates to full length AR mRNA. The data set is described as follows: Full-length AR RNA in 22RV1 cells (complete, CSS+DHT medium). In kind it is cell-based, human. The settings on record: RNAiMax, 48 hrs. The method, then: Cells were plated at 1,000 cells per well. […] After an incubation period of 48 hrs, RNA levels of full length AR, the V7 variant, PSA and TMPRSS2 were measured.
After an incubation period of 48 hrs, RNA levels of full length AR, the V7 variant, PSA and TMPRSS2 were measured.
Cells were plated at 2,000 cells per well and cultured in CSS media for 16 hours. […] After 4 hrs, 1 nM DHT was added. […] After an incubation period of 48 hrs, RNA levels of AR, AR V7 variant, PSA and TMPRSS2 were measured.

For data set [5] the following is noted: cynomolgus monkey, in vivo, sc, 40 mg/kg. The source holds these as a separate data set.
Protocol: as §1
To evaluate the effect of ISIS oligonucleotides on hepatic function, the monkeys were fasted overnight. Approximately, 1.5 mL of blood samples were collected on day 44 from all the study groups. Blood was collected in tubes without anticoagulant for serum separation. The tubes were kept at room temperature for a minimum of 90 min and then centrifuged at 3,000 rpm for 10 min. Levels of various liver function markers were measured using a Toshiba 120FR NEO chemistry analyzer (Toshiba Co., Japan).
For data set [6], the system named is AR mRNA. The data set is described as follows: AR mRNA expression in MDA-MB-453 breast cancer orthotopic model. Type of data set: in vivo, human. The settings on record: Study 2; tumor tissue, normalized to human actin; 50 mg/kg s.c. 5 days per week for 2 weeks.

Read-outs that look alike come from different tables or passages of the source. Oligonucleotides are written 5' to 3', each unit as a sugar letter and its base; * is a phosphorothioate linkage, no mark a phosphodiester; rarer units and linkages stand in square brackets, end groups in braces. Plain capitals give the bases only. k = constrained ethyl (cEt); [5mC] = 5-methylcytosine; d = 2'-deoxy (DNA)

Turning to “549458 (kG*kT*kT*dG*dA*dT*dT*dT*dA*dA*dT*dG*dG*kT*kT*kG) [compound 549458]”, the “Percent inhibition of AR mRNA” value in the data set with AR mRNA [1] (0.02 μM) was 4%; in the data set with AR mRNA [1] (0.1 μM), 14%; with AR mRNA [1] (0.5 μM), 67%; in the data set with AR mRNA [1] (10 μM), 89%.
On to “549372 (kA*kA*kG*dT*dT*dG*dT*dA*dG*dT*dA*dG*dT*k[5mC]*kG*k[5mC]) [compound 549372]”, for which the “Percent inhibition of AR mRNA” value with AR mRNA [1] (0.02 μM) turned out to be 0%; in the data set with AR mRNA [1] (0.1 μM) it was 0%; in the data set on AR mRNA [1] (0.5 μM) it was 21%; in the data set on AR mRNA [1] (10 μM), 78%.
For the compound “GTTGATTTAATGGTTG (all phosphorothioate, sugars by position not given here; further chemistry not fully specified) [ISIS 549458]”, the “Percent inhibition of C4-2B cell proliferation with 0.1 μM ASO” value in the data set on C4-2B cells (0.1 μM ASO + MDV3100 1 μM, 6 days) was determined as 75%; in the data set with C4-2B cells (0.1 μM ASO + MDV3100 […], 6 days), 59%; in the data set on C4-2B cells (0.1 μM ASO, MDV3100 0 μM, 6 days), 39%. Further, the “Percent inhibition of C4-2B cell proliferation with 0.2 μM ASO” value was 79% in the data set on C4-2B cells (0.2 μM ASO + MDV3100 1 μM, 6 days); 75% with C4-2B cells (0.2 μM ASO + MDV3100 […], 6 days); 74% in the data set with C4-2B cells (0.2 μM ASO, MDV3100 0 μM, 6 days). The “synergy with MDV3100” value in the data set with C4-2B cells (C4-2B cells) is listed as “synergistic with MDV3100”. In the data set with C4-2B cells (C4-2B cells, 0.1 μM ASO in combination with […] MDV3100), the “cell proliferation inhibited, combination” value was found to be 75%. Further, the “inhibited cell proliferation, ASO alone” value with C4-2B cells (C4-2B cells, ASO alone at 0.1 μM) is given as 39%. In the data set with C4-2B cells (C4-2B cells, ASO alone, 6 days, Table 46 (0.1 μM ASO)), the “reduced cell proliferation, ASO alone” value turned out to be 74%. For the same compound, the “prostate cancer cell proliferation, ASO in combination with MDV3100” value with C4-2B cells (C4-2B cells, versus equal molar ISIS 554221 + MDV3100) is listed as “inhibited prostate cancer cell proliferation to a greater extent than an equal molar concentration of ISIS 554221 in combination of MDV3100”.
For `CNC(=O)c1ccc(N2C(=S)N(c3ccc(C#N)c(C(F)(F)F)c3)C(=O)C2(C)C)cc1F` [MDV3100, 4-(3-(4-cyano-3-(trifluoromethyl)phenyl)-5,5-dimethyl-4-oxo-2-thioxoimidazolidin-1-yl)-2-fluoro-N-methylbenzamide, reference compound], the “Percent of gene expression, AR V7 variant” value in the data set on AR V7 variant mRNA (CSS + DHT medium, 0.04 μM) is given as 82%; in the data set on AR V7 variant mRNA (CSS + DHT medium, 0.2 μM), 65%; in the data set with AR V7 variant mRNA (CSS + DHT medium, 1.0 μM) it was 101%; in the data set with AR V7 variant mRNA (CSS + DHT medium, 5.0 μM), 181%; in the data set with AR V7 variant mRNA (complete medium, 0.04 μM), 172%; with AR V7 variant mRNA (complete medium, 0.2 μM), 179%. Further, the “Percent of gene expression, AR V7 variant” value stood at 244% in the data set on AR V7 variant mRNA (complete medium, 1.0 μM) and 237% in the data set on AR V7 variant mRNA (complete medium, 5.0 μM). Moreover, the inhibition at 1 µM was determined as 38% with C4-2B cells (Table 46) and 46% in the data set with C4-2B cells (Table 47).
On to “TTGATTTAATGGTTGC [ISIS 560131] (MOE and (S)-cEt gapmer chemistry, further chemistry not given here) [targets intron 1]”, for which the “full-length AR protein (western blot)” value with full-length AR is given as “significantly reduced”. Further, in data set [2], the “Plasma BUN” value amounted to 23.7 mg/dL. Also, the “Plasma Creatinine” value in [2] was 0.84 mg/dL. The “Body Wt” value in [3] is recorded as 2.4 kg. Further, the Heart weight in [3] is 9.8 g. Also, the Kidney weight in [3] is reported as 12 g. Moreover, the Liver weight in [3] stood at 58 g. In data set [3], the “Mesenteric lymph nodes weight” value is 2.0 g. In data set [3], this compound had a Spleen weight of 2.5 g. Moreover, the K/L ratio in data set [4] worked out at 2.6. In addition, the “Oligonucleotide concentration, Liver” value in data set [4] (sc, 40 mg/kg) was determined as 793 μg/g tissue. Also, the “Percent inhibition of AR V7 variant” value was 27% with AR V7 variant mRNA (CSS + DHT medium, 1.34 nM); 31% in the data set on AR V7 variant mRNA (CSS + DHT medium, 4.0 nM); 39% in the data set on AR V7 variant mRNA (CSS + DHT medium, 13.4 nM); 41% in the data set with AR V7 variant mRNA (CSS + DHT medium, 40 nM); 0% in the data set with AR V7 variant mRNA (complete medium, 1.34 nM); 57% with AR V7 variant mRNA (complete medium, 4.0 nM). In addition, the “Percent inhibition of AR V7 variant” value with AR V7 variant mRNA (complete medium, 13.4 nM) is 78%; in the data set with AR V7 variant mRNA (complete medium, 40 nM), 84%. Further, the “Percent inhibition of full-length AR” value with full length AR mRNA (CSS + DHT medium, 1.34 nM) was found to be 65%; in the data set on full length AR mRNA (CSS + DHT medium, 4.0 nM) it was 85%; with full length AR mRNA (CSS + DHT medium, 13.4 nM), 93%; with full length AR mRNA (complete medium, 1.34 nM), 7%; with full length AR mRNA (complete medium, 4.0 nM), 19%; in the data set on full length AR mRNA (complete medium, 13.4 nM), 49%. Besides, in the data set with full length AR mRNA (complete medium, 40 nM), the “Percent inhibition of full-length AR” value is 76%. The compound further yielded an ALT in data set [5] of 68 IU/L. In data set [5], this compound displayed an AST of 87 IU/L. The compound further came in with an Albumin in data set [5] of 4.0 g/dL. Moreover, in the data set on AR mRNA [6], the “AR RNA expression inhibited compared to the control group” value was 35%.
As for “GGCTACTACGCCGTCA (3-10-3 (S)-cEt gapmer, chemistry not fully specified) [ISIS 549148, reference compound]”, the “Percent inhibition of AR V7 variant” value was 12% in the data set on AR V7 variant mRNA (CSS + DHT medium, 1.34 nM); 0% in the data set on AR V7 variant mRNA (CSS + DHT medium, 4.0 nM); 0% with AR V7 variant mRNA (CSS + DHT medium, 13.4 nM); 5% in the data set on AR V7 variant mRNA (CSS + DHT medium, 40 nM); 0% in the data set with AR V7 variant mRNA (complete medium, 1.34 nM); 8% with AR V7 variant mRNA (complete medium, 4.0 nM). The “Percent inhibition of AR V7 variant” value was 0% with AR V7 variant mRNA (complete medium, 13.4 nM) and 14% with AR V7 variant mRNA (complete medium, 40 nM). The “Percent inhibition of full-length AR” value in the data set with full length AR mRNA (CSS + DHT medium, 1.34 nM) was found to be 2%; in the data set on full length AR mRNA (CSS + DHT medium, 4.0 nM) it was 13%; in the data set on full length AR mRNA (CSS + DHT medium, 13.4 nM) it was 22%; in the data set on full length AR mRNA (complete medium, 1.34 nM), 6%; in the data set on full length AR mRNA (complete medium, 4.0 nM) it was 0%; in the data set on full length AR mRNA (complete medium, 13.4 nM), 11%. In the data set on full length AR mRNA (complete medium, 40 nM), the “Percent inhibition of full-length AR” value stood at 17%.
